Source: patent US9259002B2, “Herbicidal composition and method of use thereof” (Syngenta Crop Protection LLC, priority 2006, dated 2016)

What was measured:
Assay type in all cases: in vivo
[1] = tested on: Medicago lupulina (black medic); test: Glasshouse trial, post-emergence control of black medic; conditions: for Expected control (Colby), Plus Mesotrione at 100 g ai/ha: Colby formula; for Actual control, Plus Mesotrione at 100 g ai/ha: post-emergence
Protocol: (§1) A glasshouse trial was carried out. White clover seeds were sown into standard glasshouse potting mix (1:1 v/v Promix:Vero sand soil) contained in 10 cm square plastic pots. Treatments were replicated three times. Mesotrione (in the form Callisto® 480SE) was applied post-emergence to white clover (Trifolium repens) at either 50 g ai/ha or 100 g ai/ha with or without dithiopyr (in the form Dimension®). When used, dithiopyr was applied at a rate of 70 g ai/ha or 140 g ai/ha. The adjuvant system was X-77 at 0.1% v/v in deionised water. 200 liters of herbicide/adjuvant system was used per hectare. General weed control was evaluated at 10 and 16 days after treatment (DAT). It is noted that all herbicides were applied at reduced field rates because herbicide effects are magnified in a glasshouse environment. Rates were chosen to give a 50 to 70% level of control with herbicides applied alone as this allows for detection of any synergistic effect when tank mixtures are used. […] The results were evaluated using the Colby formula. The expected result for (A+B) is (A+B)−(A×B/100) where A and B are the ‘observed’ results for A and B on their own. […] A glasshouse trial was carried out as described in Example 1, but using triclopyr (in the form of Turflon®) instead of dithiopyr. A glasshouse trial was carried out as described in Example 2, but using Medicago lupulina (black medic) of white clover. A glasshouse trial was carried out as described in Example 4, but using fluoroxypyr instead of triclopyr.

[2] = tested on: Eleusine indica (goosegrass); test: Glasshouse trial, post-emergence control of goosegrass; conditions: for Expected control (Colby), Plus Mesotrione at 200 g ai/ha: Colby formula; for Actual control, Plus Mesotrione at 200 g ai/ha: post-emergence
[3] = tested on: white clover (Trifolium repens); test: Glasshouse trial, post-emergence control of white clover
Protocol: as §1, with “Mesotrione (in the form Callisto® 480SE) was applied post-emergence to white clover (Trifolium repens) at either 50 g ai/ha or 100 g ai/ha with or without dithiopyr (in the form Dimension®).” left out, “fluoroxypyr (in the form” for “Medicago lupulina (black medic)”, “Spotlight®)” for “white clover. A glasshouse trial was carried out as described in Example 4, but using fluoroxypyr”

[4] = triclopyr 140 g ai/ha + mesotrione 100 g ai/ha
[5] = triclopyr 140 g ai/ha + mesotrione 200 g ai/ha
[6] = triclopyr 280 g ai/ha + mesotrione 200 g ai/ha
[7] = fluroxypyr 50 g ai/ha + mesotrione 100 g ai/ha

With `O=C(O)COc1nc(Cl)c(Cl)cc1Cl` [Triclopyr, [(3,5,6-trichloro-2-pyridyl)oxy]acetic acid] the “Expected control (Colby), Plus Mesotrione at 100 g ai/ha” value (“Expected control … at 100 g ai/ha” below) [1, 4] was 91, the “Actual control, Plus Mesotrione at 100 g ai/ha” value (shortened to “Actual control … at 100 g ai/ha”) [1, 4] was 97 and the “Expected control (Colby), Plus Mesotrione at 200 g ai/ha” value (shortened to “Expected control … at 200 g ai/ha”) [2, 5] was 32. The “Actual control, Plus Mesotrione at 200 g ai/ha” value (“Actual control … at 200 g ai/ha” for short) [2, 5] was 42, the “Expected control … at 200 g ai/ha” value [2, 6] was 35 and the “Actual control … at 200 g ai/ha” value [2, 6] was 50. The “Expected control … at 100 g ai/ha” value ([3]; triclopyr 140 g ai/ha + mesotrione 100 g ai/ha, Colby formula) was 84, the “Actual control … at 100 g ai/ha” value ([3]; triclopyr 140 g ai/ha + mesotrione 100 g ai/ha, post-emergence) was 99 and the “Expected control … at 200 g ai/ha” value ([3]; triclopyr 140 g ai/ha + mesotrione 200 g ai/ha, Colby formula) was 90. The “Actual control … at 200 g ai/ha” value ([3]; triclopyr 140 g ai/ha + mesotrione 200 g ai/ha, post-emergence) was 98.
With `Nc1c(Cl)c(F)nc(OCC(=O)O)c1Cl` [Fluroxypyr, [(4-amino-3,5-dichloro-6-fluoro-2-pyridinyl)oxy]acetic acid] the “Expected control … at 100 g ai/ha” value [1, 7] was 85, the “Actual control … at 100 g ai/ha” value [1, 7] was 90 and the “Expected control … at 100 g ai/ha” value ([3]; fluroxypyr 50 g ai/ha + mesotrione 100 g ai/ha, Colby formula) was 84. The “Actual control … at 100 g ai/ha” value ([3]; fluroxypyr 50 g ai/ha + mesotrione 100 g ai/ha, post-emergence) was 91.
With `CS(=O)(=O)c1ccc(C(=O)C2C(=O)CCCC2=O)c([N+](=O)[O-])c1` [mesotrione, 2-(2′-nitro-4′-methylsulphonylbenzoyl)-1,3-cyclohexanedione] the “control of white clover on its own” value ([3]; mesotrione alone, higher rate (100 g ai/ha), post-emergence) was 48% and the “control of white clover on its own” value ([3]; mesotrione alone, lower rate (50 g ai/ha), post-emergence) was 32%.
In the case of `CSC(=O)c1c(C(F)F)nc(C(F)(F)F)c(C(=O)SC)c1CC(C)C` [Dithiopyr, S,S′-dimethyl 2-difluoromethyl-4-isobutyl-6-trifluoromethylpyridine-=3,5-dicarbothioate], the “Actual control, Plus Mesotrione at 50 g ai/ha” value ([3]; dithiopyr 70 g ai/ha + mesotrione 50 g ai/ha tank mix, post-emergence, 10 DAT) is reported as 46.7, the “Expected control (Colby), Plus Mesotrione at 50 g ai/ha” value ([3]; dithiopyr 70 g ai/ha + mesotrione 50 g ai/ha, 10 DAT, Colby formula) is reported as 37.4 and the “Actual control … at 100 g ai/ha” value ([3]; dithiopyr 70 g ai/ha + mesotrione 100 g ai/ha tank mix, post-emergence, 10 DAT) is reported as 55.0. For the same compound, the “Expected control … at 100 g ai/ha” value ([3]; dithiopyr 70 g ai/ha + mesotrione 100 g ai/ha, 10 DAT, Colby formula) was 52.6, the “Actual control, Plus Mesotrione at 50 g ai/ha” value ([3]; dithiopyr 140 g ai/ha + mesotrione 50 g ai/ha tank mix, post-emergence, 10 DAT) was 43.3 and the “Expected control (Colby), Plus Mesotrione at 50 g ai/ha” value ([3]; dithiopyr 140 g ai/ha + mesotrione 50 g ai/ha, 10 DAT, Colby formula) was 44.2. The “Actual control … at 100 g ai/ha” value ([3]; dithiopyr 140 g ai/ha + mesotrione 100 g ai/ha tank mix, post-emergence, 10 DAT) was 46.7, the “Expected control … at 100 g ai/ha” value ([3]; dithiopyr 140 g ai/ha + mesotrione 100 g ai/ha, 10 DAT, Colby formula) was 57.8 and the “control of white clover on its own” value ([3]; dithiopyr alone, higher rate (140 g ai/ha), post-emergence) was 18%. The “control of white clover on its own” value ([3]; dithiopyr alone, lower rate (70 g ai/ha), post-emergence) was 8%.
